From patent US11053219B2, “Substituted pyridines as TYK2 inhibitors” (FronThera U.S. Pharmaceuticals LLC, priority 2018, dated 2021) come the findings set out here.

Like-named read-outs stand apart in the source and are kept apart here. A value given as a limit tells only on which side of the number the result lay.

The target of one assay is TYK2 (JH2 domain) (Homo sapiens (Human), UniProt P29597). The experiment in a line: TYK2 JH2 domain binding assay (DiscoverX KINOMEscan). The note with it: 11-point 3-fold dilution, duplicate.
Assay [1] deals with IL12-induced p-STAT4 in human PBMC. As to the kind of experiment: IL-12 induced pSTAT4 in human PBMC. It is filed as cell-based. Conditions: read-out: p-STAT4 IC50.
Assay [2] relates to INFα induced pSTAT5 in human PBMC. As to the kind of experiment: INFα induced pSTAT5 in human PBMC. In kind it is cell-based. Conditions: human PBMC, INFα 5000 units/ml; read-out: p-STAT5 IC50.

TYK2 (JH2 domain), sequence (P29597 589-875): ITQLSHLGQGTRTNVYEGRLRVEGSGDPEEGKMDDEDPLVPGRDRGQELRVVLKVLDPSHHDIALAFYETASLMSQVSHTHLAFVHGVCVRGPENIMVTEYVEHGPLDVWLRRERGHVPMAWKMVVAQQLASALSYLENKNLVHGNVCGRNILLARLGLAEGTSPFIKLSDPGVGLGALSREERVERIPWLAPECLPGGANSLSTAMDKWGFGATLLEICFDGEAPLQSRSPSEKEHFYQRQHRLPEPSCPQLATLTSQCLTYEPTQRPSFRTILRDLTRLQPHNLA

The term Kd denotes the constant that tells how readily two partners part at equilibrium. One may read the IC50 as the concentration at which inhibition is half-maximal. `[2H]C([2H])([2H])NC(=O)c1nnc(N2CCN(CC(C)C)C2=O)cc1Nc1cccc(-c2ncn(C)n2)c1OC` [Example 17, 6-(3-isobutyl-2-oxo-imidazolidin-1-yl)-4-[2-methoxy-3-(1-methyl-1,2,4-triazol-3-yl)anilino]-N-(trideuteriomethyl)pyridazine-3-carboxamide] had a Kd on TYK2 (JH2 domain) of at most 1 nM. Also, the IC50 in assay [1] (human PBMC, IL-12 10 ng/ml) was under 100 nM. In the same order, the values of `[2H]C([2H])([2H])NC(=O)c1nnc(N2CCN(C3CCCC3)C2=O)cc1Nc1cccc(-c2ncn(C)n2)c1OC` [Example 18, 6-(3-cyclopentyl-2-oxo-imidazolidin-1-yl)-4-[2-methoxy-3-(1-methyl-1,2,4-triazol-3-yl)anilino]-N-(trideuteriomethyl)pyridazine-3-carboxamide] are at most 1 nM and under 100 nM.

As for `[2H]C([2H])([2H])NC(=O)c1nnc(N2CCN(C34CC(C3)C4)C2=O)cc1Nc1cccc(-c2ncn(C)n2)c1OC` [Example 19, 6-[3-(3-bicyclo[1.1.1]pentanyl)-2-oxo-imidazolidin-1-yl]-4-[2-methoxy-3-(1-methyl-1,2,4-triazol-3-yl)anilino]-N-(trideuteriomethyl)pyridazine-3-carboxamide], the Kd on TYK2 (JH2 domain) is at most 1 nM. Besides, in assay [1] (human PBMC, IL-12 10 ng/ml), the IC50 is under 100 nM. In turn, `[2H]C([2H])([2H])NC(=O)c1nnc(N2CCN(C3CCC3)C2=O)cc1Nc1cccc(-c2ncn(C)n2)c1OC([2H])([2H])[2H]` [Example 20, 6-(3-cyclobutyl-2-oxo-imidazolidin-1-yl)-4-[3-(1-methyl-1,2,4-triazol-3-yl)-2-(trideuteriomethoxy)anilino]-N-(trideuteriomethyl)pyridazine-3-carboxamide] came in with a Kd on TYK2 (JH2 domain) of at most 1 nM. Moreover, the IC50 in assay [1] (human PBMC, IL-12 10 ng/ml) is under 100 nM. In the same order, the values of `[2H]C([2H])([2H])NC(=O)c1nnc(N2CCN(C(C([2H])([2H])[2H])C([2H])([2H])[2H])C2=O)cc1Nc1cccc(-c2ncn(C([2H])([2H])[2H])n2)c1OC` [Example 21, 6-(3-isopropyl-2-oxo-imidazolidin-1-yl)-4-[2-methoxy-3-(1-methyl-1,2,4-triazol-3-yl)anilino]-N-(trideuteriomethyl)pyridazine-3-carboxamide] are at most 1 nM and under 100 nM. In the same order, the values of `[2H]C([2H])([2H])NC(=O)c1nnc(N2CCN(C3CCC3)C2=O)cc1Nc1cccc(-c2ncn(C([2H])([2H])[2H])n2)c1OC` [Example 22, 6-(3-cyclobutyl-2-oxo-imidazolidin-1-yl)-4-[2-methoxy-3-[1-(trideuteriomethyl)-1,2,4-triazol-3-yl]anilino]-N-(trideuteriomethyl)pyridazine-3-carboxamide] are at most 1 nM and under 100 nM. With `[2H]C([2H])([2H])NC(=O)c1nnc(NC(=O)N2CCC2)cc1Nc1cccc(-c2ncn(C)n2)c1OC` [Example 28], the Kd on TYK2 (JH2 domain) was at most 1 nM. The half-inhibitory concentration (IC50) in assay [2] is under 100 nM. Regarding `[2H]C([2H])([2H])NC(=O)c1nnc(NC(=O)N2CCCC2)cc1Nc1cccc(-c2ncn(C)n2)c1OC` [Example 29], on TYK2 (JH2 domain), the Kd was at most 1 nM. Also, the IC50 in assay [1] (Homo sapiens, PBMC) was under 100 nM.

For `CNC(=O)c1nnc(NC(=O)N2CCC2)cc1Nc1cccc(-c2ncn(C)n2)c1OC` [Example 30], on TYK2 (JH2 domain), the dissociation constant (Kd) is at most 1 nM. Further, the IC50 in assay [1] (human PBMC, IL-12 10 ng/ml) was under 100 nM. Regarding `[2H]C1([2H])CN(C(=O)Nc2cc(Nc3cccc(-c4ncn(C)n4)c3OC)c(C(=O)NC([2H])([2H])[2H])nn2)C1` [Example 31], the IC50 in assay [1] (human PBMC, IL-12 10 ng/ml) is under 100 nM. `[2H]C([2H])([2H])NC(=O)c1nnc(NC(=O)N2CC3(CCC3)C2)cc1Nc1cccc(-c2ncn(C)n2)c1OC` [Example 32] came in with a Kd on TYK2 (JH2 domain) of at most 1 nM. In addition, in assay [1] (Homo sapiens, PBMC), the IC50 is under 100 nM.

On TYK2 (JH2 domain), `COc1c(Nc2cc(NC(=O)N3CCC3)ncc2C(=O)C2CC2)cccc1-c1ncn(C)n1` [Example 33] yielded a Kd of at most 1 nM. The IC50 in assay [1] (Homo sapiens, PBMC) was under 100 nM. Take `[2H]C([2H])([2H])Oc1c(Nc2cc(NC(=O)C3CC3)ncc2C(=O)C2CC2)cccc1-c1ncn(C)n1` [Example 34]: in assay [1] (Homo sapiens, PBMC), the IC50 was under 100 nM. `COc1c(Nc2cc(NC(=O)C(C)C)ncc2C(=O)C2CC2)cccc1-c1ncn(C)n1` [Example 36]: the dissociation constant (Kd) on TYK2 (JH2 domain) was at most 1 nM. Moreover, the IC50 in assay [1] (human PBMC, IL-12 10 ng/ml) is under 100 nM. For `[2H]C([2H])([2H])NC(=O)c1nnc(NC(=O)N2CC(F)(F)C2)cc1Nc1cccc(-c2ncn(C)n2)c1OC` [Example 47] the same measures were at most 1 nM and under 100 nM. For `[2H]C([2H])([2H])NC(=O)c1cnc(N2CCN(C(C)C)C2=O)cc1Nc1cccc(-c2ncn(C)n2)c1OC` [Example 48] the same measures were at most 1 nM and under 100 nM. In the same order, the values of `[2H]C([2H])([2H])NC(=O)c1nnc(NC(=O)N2CCC2)cc1Nc1cccc(-c2ncn(C)n2)c1OC` [Example 50] are at most 1 nM and under 100 nM. Take `COc1c(Nc2cc(Nc3ccncn3)ncc2C(=O)C2CC2)cccc1-c1ncn(C)n1` [Example 52]: the Kd on TYK2 (JH2 domain) is at most 1 nM. In addition, the IC50 in assay [1] (human PBMC, IL-12 10 ng/ml) was under 100 nM. Regarding `[2H]C([2H])([2H])NC(=O)c1nnc(N2CCN(C3C[C@@H]3F)C2=O)cc1Nc1cccc(-c2ncn(C)n2)c1OC` (stereo partly drawn) [Example 78], the Kd at TYK2 (JH2 domain) was at most 1 nM. Also, the IC50 in assay [1] (human PBMC, IL-12 10 ng/ml) was under 100 nM. In the same order, the values of `[2H]C([2H])([2H])NC(=O)c1nnc(N2CCN(C(C)CO)C2=O)cc1Nc1cccc(-c2ncn(C)n2)c1OC` (stereo not drawn) [Example 85] are at most 1 nM and 100 to 1000 nM. `COc1c(Nc2cc(Nc3cc(F)ccn3)ncc2C(=O)C2CC2)cccc1-c1ncn(C)n1` [Example 108] registered a Kd at TYK2 (JH2 domain) of at most 1 nM. The IC50 in assay [2] was under 100 nM.

In turn, `CC(C)(O)c1ccc(Nc2cc(Nc3ncccc3S(C)(=O)=O)c(C(=O)C3CC3)cn2)nc1` [Example 126] had a dissociation constant (Kd) at TYK2 (JH2 domain) of at most 1 nM. The IC50 in assay [2] is under 100 nM. In the case of `COc1c(Nc2cc(Nc3cc(C)c(F)cn3)ncc2C(=O)C2CC2)cccc1-c1ncn(C)n1` [Example 145], the Kd on TYK2 (JH2 domain) is at most 1 nM. In assay [2], the IC50 was under 100 nM. For the molecule `[2H]C([2H])([2H])NC(=O)c1nnc(N2CCN(C(C)C)C2=O)cc1Nc1nccc(-c2ncn(C([2H])([2H])[2H])n2)c1OC` [Example 160, 6-(3-isopropyl-2-oxo-imidazolidin-1-yl)-4-[[3-methoxy-4-[1-(trideuteriomethyl)-1,2,4-triazol-3-yl]-2-pyridyl]amino]-N-(trideuteriomethyl)pyridazine-3-carboxamide], the IC50 in assay [2] was under 100 nM.

Consider `COc1c(Nc2cc(NC(=O)[C@@H]3C[C@@H]3F)ncc2C(=O)C2CC2)cccc1-c1ncn(C)n1` [Example 161], for which the IC50 in assay [2] was under 100 nM. Still for that read-out and setting: the figure for `[2H]C([2H])([2H])NC(=O)c1nnc(NC(=O)N2CCC2C)cc1Nc1cccc(-c2ncn(C)n2)c1OC` (stereo not drawn) [Example 164, 4-((2-methoxy-3-(1-methyl-1H-1,2,4-triazol-3-yl)phenyl)amino)-N-(methyl-d3)-6-(2-methylazetidine-1-carboxamido)pyridazine-3-carboxamide] is under 100 nM. Take `[2H]C([2H])([2H])NC(=O)c1nnc(NC(=O)N2CC(C)(O)C2)cc1Nc1cccc(-c2ncn(C)n2)c1OC` [Example 165]: in assay [2], the IC50 lay within 100 to 1000 nM. On the same count and under the same terms, the figure for `[2H]C([2H])([2H])NC(=O)c1nnc(NC(=O)N2CC(CO)C2)cc1Nc1cccc(-c2ncn(C)n2)c1OC` [Example 169] is under 100 nM; for `[2H]C([2H])([2H])CC(=O)c1cnc(NC(=O)C2CC2)cc1Nc1cccc(-c2ncn(C)n2)c1OC` [Example 171] it is under 100 nM. Regarding `[2H]C([2H])([2H])CC(=O)c1cnc(Nc2ccc(C(C)(C)O)cn2)cc1Nc1ncccc1S(C)(=O)=O` [Example 172], in assay [2], the IC50 is under 100 nM. Turning to `COc1c(Nc2cc(Nc3ncc[nH]3)ncc2C(=O)C2CC2)cccc1-c1ncn(C)n1` [Example 173], in assay [2], the IC50 is 100 to 1000 nM. The same measure, in the same setting: to `CCC(=O)c1cnc(Nc2ccc(C(C)(C)O)c(F)n2)cc1Nc1ncccc1S(C)(=O)=O` [Example 174] belongs under 100 nM; to `CCC(=O)c1cnc(Nc2cccc(C#N)n2)cc1Nc1nccc(-c2ncn(C)n2)c1OC` [Example 175], under 100 nM.

Regarding `CCC(=O)c1cnc(Nc2cccc(C#N)n2)cc1Nc1ncccc1S(C)(=O)=O` [Example 176], the IC50 in assay [2] was under 100 nM. For the molecule `CCC(=O)c1cnc(Nc2cccc(C#N)n2)cc1Nc1cccc(-c2ncn(C)n2)c1OC` [Example 177], in assay [2], the half-inhibitory concentration (IC50) was under 100 nM.

Consider `CCC(=O)c1cnc(Nc2cc(C)n(C)n2)cc1Nc1cccc(-c2ncn(C)n2)c1OC` [Example 178], for which the half-maximal inhibitory concentration (IC50) in assay [2] was under 100 nM. The same measure, in the same setting: the figure for `CCC(=O)c1cnc(Nc2cc(C)n(C)n2)cc1Nc1ncccc1S(C)(=O)=O` [Example 179] is under 100 nM.

Consider `CCC(=O)c1cnc(Nc2cc(C)n(C)n2)cc1Nc1nccc(-c2ncn(C)n2)c1OC` [Example 180], for which the IC50 in assay [2] was under 100 nM. In the case of `[2H]C([2H])([2H])CC(=O)c1cnc(Nc2ccc(C(C)(C)O)c(F)n2)cc1Nc1ncccc1S(C)(=O)=O` [Example 184], in assay [2], the IC50 was under 100 nM. Regarding `[2H]C([2H])([2H])CC(=O)c1cnc(Nc2ccc(C(C)(C)O)c(F)n2)cc1Nc1nccc(-c2ncn(C)n2)c1OC` [Example 185], the IC50 in assay [2] was under 100 nM. The same measure, in the same setting: the figure for `[2H]C([2H])([2H])n1cnc(-c2cccc(Nc3cc(NC(=O)C4CC4)ncc3C(=O)CC)c2OC)n1` [Example 189] is under 100 nM. The same measure, in the same setting: the figure for `[2H]C([2H])([2H])CC(=O)c1cnc(Nc2ccc(C)nn2)cc1Nc1ncccc1S(C)(=O)=O` [Example 190] is under 100 nM; for `[2H]C([2H])([2H])CC(=O)c1cnc(Nc2cc(C)nc(C)n2)cc1Nc1ncccc1S(C)(=O)=O` [Example 191] it is under 100 nM. On the same count and under the same terms, to `[2H]C([2H])([2H])CC(=O)c1cnc(NC(=O)C2CC2)cc1Nc1nccc(-c2ncn(C)n2)c1OC` [Example 193] belongs under 100 nM; to `COc1c(Nc2cc(Nc3nc(C)c[nH]3)ncc2C(=O)C2CC2)cccc1-c1ncn(C)n1` [Example 196], 100 to 1000 nM.
